Assay results reported in patent US6737383B1, “Herbicidal oxadiazolidines” (priority 1999, dated 2004).

Key:
rape = experiment: Test B pre/postemergence rape; type: in vivo, Brassica napus
Summary of the method: (§1)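 Herbicidal effect was estimated by eye on a ten-point control scale after plants spent twelve to sixteen days in a greenhouse following soil or foliar treatment. Foliar sprays targeted plants at one to four leaves; all doses were formulated in a non-phytotoxic solvent with surfactant.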

wheat = experiment: Test B pre/postemergence wheat; type: in vivo, Triticum aestivum
Summary of the method: as §1

blackgrass = experiment: Test B pre/postemergence blackgrass; type: in vivo, Alopecurus myosuroides
Summary of the method: as §1

pigweed = experiment: Test B pre/postemergence pigweed; type: in vivo, Amaranthus retroflexus
Summary of the method: as §1

surinam grass = experiment: Test B pre/postemergence surinam grass; type: in vivo, Brachiaria decumbens
Summary of the method: as §1

morningglory = experiment: Test B pre/postemergence morningglory; type: in vivo, Ipomoea hederacea
Summary of the method: as §1

giant foxtail = experiment: Test B pre/postemergence giant foxtail; type: in vivo, Setaria faberii
Summary of the method: as §1

sugar beet = experiment: Test B pre/postemergence sugar beet; type: in vivo, Beta vulgaris
Summary of the method: as §1

cocklebur = experiment: Test B pre/postemergence cocklebur; type: in vivo, Xanthium strumarium
Summary of the method: as §1

corn = experiment: Test B pre/postemergence corn; type: in vivo, Zea mays
Summary of the method: as §1

bedstraw = experiment: Test B pre/postemergence bedstraw; type: in vivo, Galium aparine
Summary of the method: as §1

crabgrass = experiment: Test B pre/postemergence crabgrass; type: in vivo, Digitaria sanguinalis
Summary of the method: as §1

wild oat = experiment: Test B pre/postemergence wild oat; type: in vivo, Avena fatua
Summary of the method: as §1

soybean = experiment: Test B pre/postemergence soybean; type: in vivo, Glycine max
Summary of the method: as §1

velvetleaf = experiment: Test B pre/postemergence velvetleaf; type: in vivo, Abutilon theophrasti
Summary of the method: as §1

purple nutsedge = experiment: Test B pre/postemergence purple nutsedge; type: in vivo, Cyperus rotundus
Summary of the method: as §1

[1] = Postemergence, Rate 62 g/ha, scale of 0 to 10, 0 is no effect, 10 is complete control
[2] = Postemergence, Rate 125 g/ha, scale 0 to 10, 0 is no effect, 10 is complete control
[3] = Postemergence, Rate 500 g/ha, scale 0 to 10, 0 is no effect, 10 is complete control
[4] = Preemergence, Rate 62 g/ha, scale 0 to 10 (0 no effect, 10 complete control)
[5] = Preemergence, Rate 125 g/ha, scale 0 to 10, 0 is no effect, 10 is complete control
[6] = Preemergence, Rate 500 g/ha, scale of 0 to 10 where 0 is no effect and 10 is complete control
[7] = Rate 250 g/ha, Postemergence, scale of 0 to 10 where 0 is no effect and 10 is complete control

SMILES: CC(=O)OCCCCn1c(=O)on(C(=O)N(c2ccc(Cl)cc2)C(C)C)c1=O [Compound 536]
- Rape plant response rating (rape; [1]): 0
- Rape plant response rating (rape; [2]): 0
- Plant response rating, Rape (rape; [3]): 0
- Rape plant response rating (rape; [4]): 0
- Rape plant response rating (rape; [5]): 0
- Rape plant response rating (0 to 10 scale) (rape; Preemergence, Rate 250 g/ha): 0
- Rape plant response rating (rape; [6]): 0
- Plant response rating, Rape (rape; [7]): 0
- Wheat plant response rating (wheat; [1]): 0
- Wheat plant response rating (wheat; [2]): 0
- Plant response rating, Wheat (wheat; [3]): 0
- Wheat plant response rating (wheat; [4]): 0
- Wheat plant response rating (wheat; [5]): 0
- Wheat plant response rating (0 to 10 scale) (wheat; Preemergence, Rate 250 g/ha): 0
- Wheat plant response rating (wheat; [6]): 0
- Plant response rating, Wheat (wheat; [7]): 0
- Blackgrass plant response rating (blackgrass; [1]): 0
- Blackgrass plant response rating (blackgrass; [2]): 0
- Plant response rating, Blackgrass (blackgrass; [3]): 0
- Blackgrass plant response rating (blackgrass; [4]): 0
- Blackgrass plant response rating (blackgrass; [5]): 0
- Blackgrass plant response rating (0 to 10 scale) (blackgrass; Preemergence, Rate 250 g/ha): 0
- Blackgrass plant response rating (blackgrass; [6]): 0
- Plant response rating, Blackgrass (blackgrass; [7]): 0
- Redroot pigweed plant response rating (pigweed; [1]): 0
- Redroot pigweed plant response rating (pigweed; [2]): 0
- Plant response rating, Redroot pigweed (pigweed; [3]): 8
- Redroot pigweed plant response rating (pigweed; [4]): 0
- Redroot pigweed plant response rating (pigweed; [5]): 0
- Redroot pigweed plant response rating (0 to 10 scale) (pigweed; Preemergence, Rate 250 g/ha): 0
- Redroot pigweed plant response rating (pigweed; [6]): 0
- Plant response rating, Redroot pigweed (pigweed; [7]): 0
- B. signalgrass plant response rating (surinam grass; [1]): 0
- B. signalgrass plant response rating (surinam grass; [2]): 0
- Plant response rating, B. signalgrass (surinam grass; [3]): 0
- B. signalgrass plant response rating (surinam grass; [4]): 0
- B. signalgrass plant response rating (surinam grass; [5]): 0
- B. signalgrass plant response rating (0 to 10 scale, 0 is no effect, 10 is complete control) (surinam grass; Preemergence, Rate 250 g/ha): 0
- B. signalgrass plant response rating (surinam grass; [6]): 0
- Plant response rating, B. signalgrass (surinam grass; [7]): 0
- Morningglory plant response rating (morningglory; [1]): 2
- Morningglory plant response rating (morningglory; [2]): 2
- Plant response rating, Morningglory (morningglory; [3]): 2
- Morningglory plant response rating (morningglory; [4]): 0
- Morningglory plant response rating (morningglory; [5]): 0
- Plant response rating, Morningglory (morningglory; [7]): 2
- Giant foxtail plant response rating (giant foxtail; [1]): 0
- Giant foxtail plant response rating (giant foxtail; [2]): 0
- Plant response rating, Giant foxtail (giant foxtail; [3]): 0
- Giant foxtail plant response rating (giant foxtail; [4]): 7
- Giant foxtail plant response rating (giant foxtail; [5]): 9
- Giant foxtail plant response rating (0 to 10 scale) (giant foxtail; Preemergence, Rate 250 g/ha): 10
- Giant foxtail plant response rating (giant foxtail; [6]): 10
- Plant response rating, Giant foxtail (giant foxtail; [7]): 0
- Sugarbeets plant response rating (sugar beet; [1]): 0
- Sugarbeets plant response rating (sugar beet; [2]): 0
- Plant response rating, Sugarbeets (sugar beet; [3]): 0
- Sugarbeets plant response rating (sugar beet; [4]): 0
- Sugarbeets plant response rating (sugar beet; [5]): 0
- Sugarbeets plant response rating (0 to 10 scale) (sugar beet; Preemergence, Rate 250 g/ha): 2
- Sugarbeets plant response rating (sugar beet; [6]): 3
- Plant response rating, Sugarbeets (sugar beet; [7]): 0
- Cocklebur plant response rating (cocklebur; [1]): 0
- Cocklebur plant response rating (cocklebur; [2]): 0
- Plant response rating, Cocklebur (cocklebur; [3]): 0
- Cocklebur plant response rating (cocklebur; [4]): 0
- Cocklebur plant response rating (cocklebur; [5]): 0
- Cocklebur plant response rating (0 to 10 scale) (cocklebur; Preemergence, Rate 250 g/ha): 0
- Cocklebur plant response rating (cocklebur; [6]): 0
- Plant response rating, Cocklebur (cocklebur; [7]): 0
- Corn plant response rating (corn; [1]): 0
- Corn plant response rating (corn; [2]): 0
- Plant response rating, Corn (corn; [3]): 0
- Corn plant response rating (corn; [4]): 0
- Corn plant response rating (corn; [5]): 0
- Corn plant response rating (0 to 10 scale) (corn; Preemergence, Rate 250 g/ha): 0
- Corn plant response rating (corn; [6]): 0
- Plant response rating, Corn (corn; [7]): 0
- Bedstraw plant response rating (bedstraw; [2]): 0
- Bedstraw plant response rating (bedstraw; [4]): 0
- Bedstraw plant response rating (bedstraw; [5]): 0
- Bedstraw plant response rating (0 to 10 scale) (bedstraw; Preemergence, Rate 250 g/ha): 0
- Bedstraw plant response rating (bedstraw; [6]): 0
- Plant response rating, Bedstraw (bedstraw; [7]): 0
- Crabgrass plant response rating (crabgrass; [1]): 0
- Crabgrass plant response rating (crabgrass; [2]): 5
- Plant response rating, Crabgrass (crabgrass; [3]): 3
- Crabgrass plant response rating (crabgrass; [4]): 0
- Crabgrass plant response rating (crabgrass; [5]): 0
- Crabgrass plant response rating (0 to 10 scale) (crabgrass; Preemergence, Rate 250 g/ha): 0
- Crabgrass plant response rating (crabgrass; [6]): 2
- Plant response rating, Crabgrass (crabgrass; [7]): 5
- Wild oats plant response rating (wild oat; [1]): 0
- Wild oats plant response rating (wild oat; [2]): 0
- Plant response rating, Wild oats (wild oat; [3]): 0
- Wild oats plant response rating (wild oat; [4]): 0
- Wild oats plant response rating (wild oat; [5]): 0
- Wild oats plant response rating (0 to 10 scale) (wild oat; Preemergence, Rate 250 g/ha): 0
- Wild oats plant response rating (wild oat; [6]): 0
- Plant response rating, Wild oats (wild oat; [7]): 0
- Soybean plant response rating (soybean; [1]): 2
- Soybean plant response rating (soybean; [2]): 4
- Plant response rating, Soybean (soybean; [3]): 6
- Soybean plant response rating (soybean; [4]): 0
- Soybean plant response rating (soybean; [5]): 0
- Soybean plant response rating (0 to 10 scale) (soybean; Preemergence, Rate 250 g/ha): 0
- Soybean plant response rating (soybean; [6]): 0
- Plant response rating, Soybean (soybean; [7]): 4
- Velvetleaf plant response rating (velvetleaf; [1]): 0
- Velvetleaf plant response rating (velvetleaf; [2]): 0
- Plant response rating, Velvetleaf (velvetleaf; [3]): 0
- Velvetleaf plant response rating (velvetleaf; [4]): 0
- Velvetleaf plant response rating (velvetleaf; [5]): 0
- Velvetleaf plant response rating (0 to 10 scale) (velvetleaf; Preemergence, Rate 250 g/ha): 0
- Velvetleaf plant response rating (velvetleaf; [6]): 0
- Plant response rating, Velvetleaf (velvetleaf; [7]): 0
- Nutsedge plant response rating (purple nutsedge; [1]): 0
- Nutsedge plant response rating (purple nutsedge; [2]): 0
- Plant response rating, Nutsedge (purple nutsedge; [3]): 0
- Nutsedge plant response rating (purple nutsedge; [4]): 0
- Nutsedge plant response rating (purple nutsedge; [5]): 0
- Nutsedge plant response rating (0 to 10 scale) (purple nutsedge; Preemergence, Rate 250 g/ha): 0
- Nutsedge plant response rating (purple nutsedge; [6]): 0
- Plant response rating, Nutsedge (purple nutsedge; [7]): 0
